Laboratory results: the supplement of paper PMC10307832

Legend:
Assay in all cases: relative viability (nuclei count vs DMSO), 5 days (fraction); higher = more cells survive
[1] = compound: O=C(NC1CCNCC1)c1n[nH]cc1NC(=O)c1c(Cl)cccc1Cl [AT-7519] + Cc1nc(Nc2ncc(C(=O)Nc3c(C)cccc3Cl)s2)cc(N2CCN(CCO)CC2)n1 [Dasatinib] (partner 0.075 µM)
Summary of the method: (§1)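 Relative viability is defined as nuclei in treated wells over nuclei in vehicle wells. Duplicate plates were run and medians reported. Lung cancer cell lines in 1536-well plates were dosed by pin tool one day after seeding, with one drug or with a fixed anchor-drug dose plus five library-drug doses (not always all listed) in √10 steps, and nuclei were counted after 5 days.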

[2] = compound: C1=CC2=C(C=C(C(=C2N=C1)O)N=NC3=CC4=C(C=C3)C=C(C=C4)S(=O)(=O)O)S(=O)(=O)O + Nc1ncn([C@H]2C[C@H](O)[C@@H](CO)O2)c(=O)n1 [Decitabine] (partner 2 µM)
Summary of the method: as §1

[3] = compound: O=C(NC1CCNCC1)c1n[nH]cc1NC(=O)c1c(Cl)cccc1Cl [AT-7519] + CCNC(=O)c1noc(-c2cc(C(C)C)c(O)cc2O)c1-c1ccc(CN2CCOCC2)cc1 [Luminespib] (partner 0.01 µM)
Summary of the method: as §1

[4] = compound: C1=CC2=C(C=C(C(=C2N=C1)O)N=NC3=CC4=C(C=C3)C=C(C=C4)S(=O)(=O)O)S(=O)(=O)O + CC(C)C[C@H](NC(=O)[C@H](Cc1ccccc1)NC(=O)c1cnccn1)B(O)O [Bortezomib] (partner 0.002 µM)
Summary of the method: as §1

Cell Line | relative viability ([1]; first compound 0.01 µM) | relative viability ([1]; first compound 0.03162 µM) | relative viability ([1]; first compound 0.3162 µM) | relative viability ([1]; first compound 1 µM) | relative viability ([2]; first compound 0.08 µM) | relative viability ([2]; first compound 0.253 µM) | relative viability ([2]; first compound 0.8 µM) | relative viability ([2]; first compound 2.53 µM) | relative viability ([2]; first compound 8 µM) | relative viability ([3]; first compound 0.01 µM) | relative viability ([3]; first compound 0.03162 µM) | relative viability ([3]; first compound 0.3162 µM) | relative viability ([3]; first compound 1 µM) | relative viability ([4]; first compound 0.08 µM) | relative viability ([4]; first compound 0.253 µM) | relative viability ([4]; first compound 0.8 µM) | relative viability ([4]; first compound 2.53 µM) | relative viability ([4]; first compound 8 µM)
LC-2-ad | 0.555 | 0.61 | 0.328 | 0.332 | 0.909 | 0.744 | 0.834 | 0.808 | 0.812 | 1.03 | 0.892 | 1.17 | 0.501 | 1.12 | 1.04 | 0.976 | 1.08 | 0.902
LCLC-97TM1 | 0.911 | 0.791 | 0.763 | 0.396 | 0.217 | 0.29 | 0.198 | 0.25 | 0.204 | 0.976 | 0.692 | 0.788 | 0.285 | 0.815 | 0.492 | 0.525 | 0.753 | 0.395
LCLC-103H | 0.533 | 0.388 | 0.451 | 0.54 | 0.811 | 0.774 | 0.655 | 0.744 | 0.732 | 1.06 | 0.953 | 0.955 | 0.867 | 1.14 | 1.14 | 1.12 | 1.15 | 1.02
LOU-NH91 | 0.613 | 0.6 | 0.604 | 0.511 | 0.865 | 0.791 | 0.834 | 0.791 | 0.841 | 0.356 | 0.312 | 0.351 | 0.281 | 0.504 | 0.477 | 0.51 | 0.498 | 0.496
LU99A | 0.609 | 0.574 | 0.468 | 0.536 | 0.91 | 0.818 | 0.767 | 0.838 | 0.705 | 0.274 | 0.221 | 0.223 | 0.193 | 1.27 | 1.13 | 1.04 | 0.986 | 1.29
LXF-289 | 0.219 | 0.232 | 0.222 | 0.235 | 0.412 | 0.383 | 0.395 | 0.371 | 0.31 | 0.557 | 0.724 | 0.697 | 0.5 | 0.95 | 0.96 | 0.986 | 0.986 | 0.945
NCI-H23 | 0.681 | 0.715 | 0.811 | 0.438 | 0.331 | 0.304 | 0.335 | 0.311 | 0.302 | 0.224 | 0.236 | 0.183 | 0.146 | 1.06 | 0.82 | 1.08 | 1.06 | 0.897
NCI-H322M | 0.257 | 0.257 | 0.226 | 0.275 | 0.764 | 0.715 | 0.708 | 0.723 | 0.768 | 0.893 | 0.824 | 0.462 | 0.305 | 1.26 | 1.11 | 1.22 | 1.32 | 1.28
